This note sets out measurements from patent US20230381774A1, “MICROFLUDIC LAB-ON-CHIP DEVICE, MATRIX, SMALL MOLECULES AND THREE-DIMENSIONAL SPHEROIDS FOR CELL REPROGRAMMING” (The Regents of the University of California, priority 2022, published 2023).

One test concerns H3K27me3. Put plainly: Western blotting of H3K27me3. Type of test: cell-based, mouse. The procedure: Equal amounts of total protein (50 μg) from each sample were separated in a 10% SDS-PAGE gel and transferred to a PVDF membrane at 120 V for 2 hours at room temperature. The blot was blocked with 5% nonfat dry milk suspended in 1×TBS (25 mM Tris, 137 mM NaCl, and 2.7 mM KCl) for 1 hour. Membranes were incubated sequentially with primary antibodies and secondary antibodies. Bands were scanned using a densitometer (Bio-Rad) and quantified using the Quantity One 4.6.3 software (Bio-Rad).
(A western blot detects proteins with antibodies after separation by electrophoresis.)

For test [1], the system named is primary human neonatal dermal fibroblasts (hNDFs). Put plainly: Spatial iN reprogramming in 3D spheroids (Tuj1 staining). Type of test: cell-based. The settings on record: 3 days of reprogramming, relative to no-treatment controls. From the text:
For the reduction to practice, primary human neonatal dermal fibroblasts (hNDFs) were transduced with doxycycline (Dox)-inducible lentiviral vectors for the BAMN factors. After Dox induction in monolayer to ensure unbiased activation of the transgenes, hNDFs were either plated onto Matrigel-coated cover slips as 2D controls or centrifuged in microwells to form 3D aggregates, or “spheroids” (FIG. 9A). The expression of neuron-specific β-tubulin III (Tuj1) was used as a marker of neuronal fate, as is convention. Tuj1 expression began earlier in spheroids than in 2D culture, appearing as early as day 2 (two days after Dox induction and one day after spheroid formation) (FIG. 9BC). To evaluate relative reprogramming efficiency, spheroids were replated onto Matrigel-coated cover slips after three days without enzymatic disaggregation.
Direct reprogramming involves both disruption of the existing regulatory network (generally early on) and establishment of another. The initial nonspecific disruption is often mechanistically associated with cell cycle regulation, cell senescence, chromatin inactivation, and genome stability. To assess the impact of mechanobiological changes associated with spheroid culture on direct reprogramming, primary human neonatal dermal fibroblasts (hNDFs) were transduced with doxycycline (dox)-inducible lentiviral vectors for the BAMN factors. […]

Test [2] relates to histone acetyltransferase (HAT). Put plainly: HAT activity in fibroblasts on PAAm gels of varying stiffness. Type of test: cell-based, mouse. The conditions noted are these: glass and gels of various stiffness, inhibitor for 24 hours. An excerpt:
FIG. 16. Matrix stiffness modulates histone acetyltransferase (HAT) activity and histone acetylation. (a) Immunofluorescent images of AcH3 in non-transduced fibroblasts cultured on glass and PAAm gels of various stiffness for 2 days. Scale bar, 10 μm. (b) Quantification of AcH3 intensity in cells cultured on glass and PAAm gels of various stiffness (based on experiments in a) (n>40). […] (e) Volcano plot showing differential accessible regions. Red dots indicate regions with increased chromatin accessibility and blue dots regions with decreased accessibility. (f) Heatmap representation of differentially accessible regions that overlap with Ascl1 ChIP-seq peaks (GSE43916: SRX323557). Each row represents a differential region; each column is one biological replicate of the indicated condition. (g) Quantification of HAT activity in fibroblasts cultured on glass and PAAm gels of various stiffness for 2 days, as determined using the Epigenase HAT activity kit (n=6). (h) Quantification of HAT activity in fibroblasts cultured on glass and PA gels of various stiffness for 1 day followed by treatment with vehicle control (DMSO) or a HAT inhibitor (anacardic acid, AA) for 24 hours (n=4). […] In b-i, statistical significance was determined by a one-way ANOVA and Tukey's multiple comparison test (N.S.: Not significant., *p<0.05, **p<0.01, ***p<0.001). […]

Test [3] concerns BAM-transduced fibroblasts. The experiment in a line: iN reprogramming on PAAm gels of varying stiffness. Type of test: cell-based, mouse. The conditions noted are these: pre-treated for 24 hours before adding Dox. From the text: To determine the role of matrix stiffness on iN reprogramming, adult mouse fibroblasts were transduced with doxycycline-inducible lentiviruses containing the three reprogramming factors Ascl1, Brn2 and Myt1l (BAM), and then seeded onto polyacrylamide (PAAm) gels of various stiffness (40 kPa, 20 kPa, and 1 kPa) coated with fibronectin. Glass coverslips coated with the same ECM protein were used as a rigid glass surface control (FIG. 15a). As shown in FIG. 15b-c, both the cell area and nuclear volume of fibroblasts decreased as the stiffness of the PAAm gel decreased. […] After 7 days, cultures were fixed and immunostained for neuronal marker, neuron-specific class III β-tubulin (Tubb3) in order to identify iN cells and determine the reprogramming efficiency (FIG. 15a). […] To determine whether matrix stiffness could modulate the activation of endogenous Ascl1, fibroblasts were transduced with an Ascl1 promoter driven-GFP construct and reprogrammed for 2 days.

For the molecule `CS(=O)(=O)c1ccc(-c2cnc(NCc3ccco3)n3cnnc23)cc1` [EED226], the H3K27me3 level result in the test on H3K27me3 was “inhibited”.

Regarding `COc1cc(-c2cc(-c3cccc(O)c3)cnc2N)cc(OC)c1OC` [K02288], the “spatial Tuj1+ reprogramming patterns, inhibitor alone” value in test [1] is “did not affect spatial Tuj1+ reprogramming patterns”.

For `CCCCCCCCCCCCCCCc1cccc(O)c1C(=O)O` [anacardic acid], the “stiffness-dependent HAT activity under HAT inhibitor” value in test [2] was “inhibited the biphasic enhancement of HAT activity and the reprogramming efficiency”. Further, the “stiffness-dependent reprogramming efficiency under HAT inhibitor” value in test [3] was “inhibited the biphasic enhancement of HAT activity and the reprogramming efficiency”.
